In patent US20230339878A1, “SLC26A3 INHIBITORS AND USE THEREOF” (THE REGENTS OF THE UNIVERSITY OF CALIFORNIA, priority 2018, published 2023):

What was measured:
(human) SLC26A3 = molecular target: T1, (human) SLC26A3 (Homo sapiens, UniProt P40879); assay: SLC26A3-mediated Cl-/I- exchange in HEK cells expressing SLC26A3 and YFP; format: cell-based
T1 construct: host or cells: HEK293 cells transduced with lentivirus, then transfected with YFP
T1 sequence (P40879 1-764): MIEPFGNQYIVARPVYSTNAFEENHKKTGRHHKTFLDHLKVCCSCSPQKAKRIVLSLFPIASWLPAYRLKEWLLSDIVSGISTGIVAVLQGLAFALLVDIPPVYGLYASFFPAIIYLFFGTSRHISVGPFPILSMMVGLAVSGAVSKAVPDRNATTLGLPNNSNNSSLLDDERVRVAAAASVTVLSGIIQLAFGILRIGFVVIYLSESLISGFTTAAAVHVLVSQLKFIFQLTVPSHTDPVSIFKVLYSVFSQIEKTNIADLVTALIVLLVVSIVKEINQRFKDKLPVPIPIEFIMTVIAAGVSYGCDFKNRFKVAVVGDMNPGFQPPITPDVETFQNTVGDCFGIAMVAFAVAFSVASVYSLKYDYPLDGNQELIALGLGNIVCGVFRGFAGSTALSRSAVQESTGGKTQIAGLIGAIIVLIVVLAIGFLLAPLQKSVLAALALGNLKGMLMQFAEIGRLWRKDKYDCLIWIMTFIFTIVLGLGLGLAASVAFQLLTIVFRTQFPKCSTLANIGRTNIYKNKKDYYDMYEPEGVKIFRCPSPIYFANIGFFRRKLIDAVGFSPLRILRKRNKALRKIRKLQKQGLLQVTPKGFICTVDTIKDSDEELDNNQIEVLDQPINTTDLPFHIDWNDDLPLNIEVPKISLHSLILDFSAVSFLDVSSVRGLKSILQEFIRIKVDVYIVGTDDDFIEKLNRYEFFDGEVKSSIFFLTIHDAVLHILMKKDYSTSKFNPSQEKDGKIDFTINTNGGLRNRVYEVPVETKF
Protocol: Inhibition of (human) SLC26A3 by Compound A1 was also tested, using a HEK cell model expressing SLC26A3 and YFP.
To generate a cell line enriched for expression of SLC26A3, HEK293 cells were transduced with lentiviral particles generated with the pLVX-IRES-mCherry-SLC26A3 transfer vector and then transfected to express YFP.
HEK293 cells transfected with pIRES-YFP-slc26a9 were plated in 96-well black-walled, clear-bottom tissue culture plates (Corning Life Sciences, Tewksbury, MA) after coating with FNC Coating Mix (AthenaES, Baltimore, MD). […] Assays of slc26a9-mediated anion exchange were done by initially recording YFP fluorescence prior to addition of 100 µL of NaI-substituted PBS to test wells, with the initial rate of Cl^-/I^- exchange deduced from fluorescence intensity by single exponential regression. […] To assay SLC26A3 function, HEK293 cells transduced with lentiviral particles generated from the pLVX-IRES-mCherry-SLC26A3 transfer vector were transfected to express YFP for Cl^-/I^- exchange assays as described above; red fluorescence images were acquired to confirm SLC26A3 expression in cells. […]

slc26a3 = molecular target: T2, slc26a3 (Mus musculus, UniProt Q9WVC8); assay: slc26a3-mediated Cl-/SCN- exchange; format: cell-based, murine; conditions: read-out: IC50 for inhibition of slc26a3-mediated Cl-/SCN- exchange
T2 construct: host or cells: Fischer rat thyroid (FRT) cells expressing YFP, clonal line FRT-YFP-slc26a3
T2 sequence (Q9WVC8 1-757): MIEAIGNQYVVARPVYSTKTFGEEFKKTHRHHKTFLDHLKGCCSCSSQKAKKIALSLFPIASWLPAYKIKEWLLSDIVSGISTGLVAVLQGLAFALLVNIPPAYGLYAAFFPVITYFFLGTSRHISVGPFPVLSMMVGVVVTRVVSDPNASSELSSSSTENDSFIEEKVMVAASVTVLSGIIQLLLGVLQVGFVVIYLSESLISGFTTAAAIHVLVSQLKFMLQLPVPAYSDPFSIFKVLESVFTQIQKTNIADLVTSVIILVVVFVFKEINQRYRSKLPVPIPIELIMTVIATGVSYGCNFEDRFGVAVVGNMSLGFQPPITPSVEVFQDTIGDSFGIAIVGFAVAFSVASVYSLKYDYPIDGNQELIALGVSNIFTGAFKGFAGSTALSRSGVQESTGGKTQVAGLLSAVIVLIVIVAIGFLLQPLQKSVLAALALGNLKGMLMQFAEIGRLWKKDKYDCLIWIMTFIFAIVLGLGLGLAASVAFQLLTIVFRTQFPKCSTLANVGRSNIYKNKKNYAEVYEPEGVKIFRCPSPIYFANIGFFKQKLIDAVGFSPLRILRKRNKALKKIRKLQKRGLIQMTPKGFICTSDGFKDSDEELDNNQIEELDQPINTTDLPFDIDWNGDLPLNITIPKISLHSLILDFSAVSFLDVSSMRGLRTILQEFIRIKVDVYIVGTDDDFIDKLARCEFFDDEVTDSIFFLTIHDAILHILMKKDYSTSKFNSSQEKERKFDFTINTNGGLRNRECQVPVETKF
Protocol: Concentration-dependence measurements for inhibition of slc26a3-mediated exchange of Cl^- and HCO3^-, the physiologically relevant activity of slc26a3, was measured using slc26a3-expressing FRT cells labeled with BCECF as a cytoplasmic pH sensor. Labeled cells were initially incubated in a Cl^--containing HCO3^- buffered solution, and HCO3^- influx / Cl^- efflux with cytoplasmic alkalinization was produced by addition of a gluconate-containing HCO3^- buffered solution. […] Concentration-dependence measurements for inhibition of slc26a3-mediated Cl^-/SCN^- exchange gave an IC50 of ~0.3 µM (FIG. 4B).

**Q.** How did the IC50 ((human) SLC26A3; HEK cells) turn out when `Cc1c(CC(=O)O)c(=O)oc2c(C)c(OCc3cccc(Br)c3)ccc12` [Compound A1] was run?
**A.** The IC50 was about 0.25 µM.

**Q.** And the “extent of inhibition of SLC26A3-mediated Cl-/I- exchange” value ((human) SLC26A3; higher concentrations)?
**A.** Its value is “complete inhibition”.

**Q.** And the IC50 (slc26a3)?
**A.** Its IC50 is about 0.3 µM.
